Reference: patent publication US9365583B2, “Substituted pyrazoles and uses thereof” (Genentech, Inc., priority 2013, dated 2016)

Molecular target: T1, N-terminally GST-tagged DLK (catalytic domain amino acid 1-520) (Homo sapiens, UniProt Q12852)
T1 construct: N-terminally GST-tagged DLK (catalytic domain amino acid 1-520); purchased Carna Bioscience
T1 sequence (Q12852 1-520): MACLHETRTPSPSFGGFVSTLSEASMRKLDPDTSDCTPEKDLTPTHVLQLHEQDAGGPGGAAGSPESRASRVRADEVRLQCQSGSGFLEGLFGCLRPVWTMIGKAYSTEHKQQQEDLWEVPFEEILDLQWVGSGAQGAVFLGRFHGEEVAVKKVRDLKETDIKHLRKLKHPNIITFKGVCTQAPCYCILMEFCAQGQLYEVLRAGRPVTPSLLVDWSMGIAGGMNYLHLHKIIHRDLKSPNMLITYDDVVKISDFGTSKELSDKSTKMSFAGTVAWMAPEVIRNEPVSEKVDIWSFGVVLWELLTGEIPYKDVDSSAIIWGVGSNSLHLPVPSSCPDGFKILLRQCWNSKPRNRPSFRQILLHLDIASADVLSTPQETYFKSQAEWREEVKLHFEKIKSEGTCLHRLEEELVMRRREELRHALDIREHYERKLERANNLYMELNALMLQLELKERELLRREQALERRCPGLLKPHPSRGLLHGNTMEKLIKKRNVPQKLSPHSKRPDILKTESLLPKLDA
Test: DLK TR-FRET inhibition assay
Format: biochemical
Details: 5 nM GST-DLK, 40 nM HIS-MKK4 K131M substrate, 30 μM ATP, 60 minutes at ambient temperature
In short: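 Phosphorylated MKK4 was quantified by TR-FRET (Eu-labelled anti-phospho-MKK4, D2 anti-HIS; 3 h, 665 and 615 nm emission) after EDTA quench. Reactions held 5 nM GST-tagged DLK catalytic domain (1-520), 40 nM HIS-MKK4 K131M substrate, 30 μM ATP and compound (3-fold series from 20 uM), 60 min, room temperature, pH 7.5.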

| SMILES | Ki [nM] |
| --- | --- |
| CC(C)n1nc(-c2cnc(N)c(C(F)(F)F)c2)cc1[C@H]1[C@@H]2C[C@H](N(C)CCS(C)(=O)=O)C[C@@H]21 [compound 8, 5-(1-isopropyl-5-((1R,3r,5S,6r)-3-(methyl(2-(methylsulfonyl)ethyl)amino)bicyclo[3.1.0]hexan-6-yl)-1H-pyrdzol-3-yl)-3-(trifluoromethyl)pyridin-2-amine] | 3.36 |
| CO[C@H]1CCN([C@H]2C[C@@H]3[C@H](C2)[C@H]3c2cc(-c3cnc(N)c(C(F)(F)F)c3)nn2CC(F)F)C1 [compound 145, 5-(1-(2,2-difluoroethyl)-5-((1R,3r,5S,6S)-3-((S)-3-methoxypyrrolidin-1-yl)bicyclo[3.1.0]hexan-6-yl)-1H-pyrazol-3-yl)-3-(trifluoro-methyl)pyridin-2-amine] | 3.3 |
| CC(C)n1nc(-c2cnc(N)c(CC(F)(F)F)c2)cc1[C@H]1[C@@H]2C[C@@H](N3CCOCC3)C[C@@H]21 [compound 281, 5-(1-isopropyl-5-((1R,3s,5S,6r)-3-morpholinobicyclo[3.1.0]hexan-6-yl)-1H-pyrazol-3-yl)-3-(2,2,2-trifluoroethyl)pyridin-2-amine] | 18.4 |
| Nc1ncc(-c2cc([C@H]3[C@@H]4C[C@@H](N5CCOCC5)C[C@@H]43)n(CC(F)F)n2)cc1OC(F)(F)F [compound 165, 5-(1-(2,2-difluoroethyl)-5-((1R,3s,5S,6r)-3-morpholinobicyclo [3.1.0]hexan-6-yl)-1H-pyrazol-3-yl)-3-(trifluoromethoxy) pyridin-2-amine] | 1.6 |
| Nc1ncc(-c2cc([C@H]3[C@@H]4C[C@H](N5CCOCC5)C[C@@H]43)n(CC(F)F)n2)cc1OC(F)(F)F [compound 93, 5-(1-(2,2-difluoroethyl)-5-((1R,3r,5S,6r)-3-morpholinobicyclo [3.1.0]hexan-6-yl)-1H-pyrazol-3-yl)-3-(trifluoromethoxy)pyridin-2-amine] | 1.22 |
| CC(C)n1nc(-c2cnc(N)c(OC(F)F)c2)cc1[C@H]1[C@@H]2C[C@@H](N3C4COCC3C4)C[C@@H]21 [compound 157, 5-(5-((1R,3s,5S,6r)-3-(3-oxa-6-azabicyclo[3.1.1]heptan-6-yl)bicyclo[3.1.0]hexan-6-yl)-1-isopropyl-1H-pyrazol-3-yl)-3-(difluoro-methoxy)pyridin-2-amine] | 3.1 |
| CC(C)n1nc(-c2cnc(N)c(OC(F)F)c2)cc1[C@H]1[C@@H]2C[C@H](NCC(F)F)C[C@@H]21 [compound 252, 5-(5-((1R,3r,5S,6r)-3-((2,2-difluoro-ethyl)amino)bicyclo[3.1.0]hexan-6-yl)-1-isopropyl-1H-pyrazol-3-yl)-3-(difluoromethoxy) pyridin-2-amine] | 3 |
| CC(C)n1nc(-c2cnc(N)c(C(F)(F)F)c2)cc1[C@H]1[C@@H]2C[C@@H](O)C[C@@H]21 [compound 5, (1R,3s,5S,6r)-6-(3-(6-amino-5-(trifluoromethyl)pyridin-3-yl)-1-isopropyl-1H-pyrazol-5-yl) bicyclo[3.1.0]hexan-3-ol] | 18.8 |
| CC(C)n1nc(-c2cnc(N)c(OC(F)(F)F)c2)cc1[C@H]1[C@@H]2C[C@H](N3CCN(C)C[C@@H]3C)C[C@@H]21 [compound 240, 5-(5-((1R,3r,5S,6S)-3-((S)-2,4-dimethylpiperazin-1-yl)bicyclo [3.1.0]hexan-6-yl)-1-isopropyl-1H-pyrazol-3-yl)-3-(trifluoromethoxy) pyridin-2-amine] | 2.1 |
| CC(C)n1nc(-c2cnc(N)c(C(F)(F)F)c2)cc1[C@H]1[C@@H]2C[C@H](N3CCCN(C)CC3)C[C@@H]21 [compound 211, 5-(1-isopropyl-5-((1R,3r,5S,6r)-3-(4-methyl-1,4-diazepan-1-yl)bicyclo[3.1.0]hexan-6-yl)-1H-pyrazol-3-yl)-3-(trifluoromethyl) pyridin-2-amine] | 3.2 |
| CC(C)n1nc(-c2cnc(N)c(OC(F)F)c2)cc1[C@H]1[C@@H]2C[C@H](N3CCOC[C@H]3C)C[C@@H]21 [compound 81, 3-(difluoromethoxy)-5-(1-isopropyl-5-((1R,3r,5S,6R)-3-((R)-3-methylmorpholino)bicyclo[3.1.0]hexan-6-yl)-1H-pyrazol-3-yl) pyridin-2-amine] | 1.43 |
| CC(C)n1nc(-c2cnc3cnn([C@@H](C)c4ccccn4)c3c2)cc1[C@H]1[C@@H]2C[C@@H](N3CCOCC3)C[C@@H]21 [compound 32, 4-((1R,3R,5S,6r)-6-(1-isopropyl-3-(1-((S)-1-(pyridin-2-yl)ethyl)-1H-pyrazolo[4,3-b]pyridin-6-yl)-1H-pyrazol-5-yl)bicyclo[3.1.0]hexan-3-yl)morpholine] | 4.08 |
| Nc1ncc(-c2cc([C@H]3[C@@H]4C[C@H](N5CCCOCC5)C[C@@H]43)n(CC(F)F)n2)cc1C(F)(F)F [compound 136, 5-(5-((1R,3r,5S,6r)-3-(1,4-oxazepan-4-yl)bicyclo[3.1.0]hexan-6-yl)-1-(2,2-difluoroethyl)-1H-pyrazol-3-yl)-3-(trifluoromethyl) pyridin-2-amine] | 7.1 |
| Nc1ncc(-c2cc([C@H]3[C@@H]4C[C@H](N5CCOCC5)C[C@@H]43)n(CC3CC3)n2)cc1OC(F)(F)F [compound 295, 5-(1-(cyclopropylmethyl)-5-((1R,3r,5S,6r)-3-morpholinobicyclo [3.1.0]hexan-6-yl)-1H-pyrazol-3-yl)-3-(trifluoromethoxy) pyridin-2-amine] | 2.4 |
| Nc1ncc(-c2cc([C@H]3[C@@H]4C[C@@H](N5CCOCC5)C[C@@H]43)nn2CC2CC2)cc1OC(F)F [compound 268, 5-(1-(cyclopropylmethyl)-3-((1R,3s,5S,6r)-3-morpholinobicyclo [3.1.0]hexan-6-yl)-1H-pyrazol-5-yl)-3-(difluoromethoxy) pyridin-2-amine] | 221 |
| CC(C)n1nc(-c2cnc(N)c(OC(F)(F)F)c2)cc1[C@H]1[C@@H]2C[C@H](N3CC4(CN(C)CCO4)C3)C[C@@H]21 [compound 220, 5-(1-isopropyl-5-((1R,3r,5S,6r)-3-(8-methyl-5-oxa-2,8-diazaspiro [3.5]nonan-2-yl)bicyclo[3.1.0]hexan-6-yl)-1H-pyrazol-3-yl)-3-(trifluoromethoxy)pyridin-2-amine] | 2.1 |
| CC(C)n1nc(-c2cnc(N)c(OC(F)F)c2)cc1[C@H]1[C@@H]2C[C@@H](N3CC4(CN(C)CCO4)C3)C[C@@H]21 [compound 224, 3-(difluoromethoxy)-5-(1-isopropyl-5-((1R,3s,5S,6r)-3-(8-methyl-5-oxa-2,8-diazaspiro[3.5]nonan-2-yl)bicyclo[3.1.0]hexan-6-yl)-1H-pyrazol-3-yl)pyridin-2-amine] | 3.8 |
| CC(C)n1nc(-c2cnc(N)c(OC(F)F)c2)cc1[C@H]1[C@@H]2CC3(COC3)C[C@@H]21 [compound 170, 3-(difluoromethoxy)-5-(1-isopropyl-5-((1R,5S,6r)-spiro[bicyclo [3.1.0]hexane-3,3′-oxetan]-6-yl)-1H-pyrazol-3-yl)pyridin-2-amine] | 4.5 |
| CO[C@@H]1CCN([C@@H]2C[C@@H]3[C@H](C2)[C@H]3c2cc(-c3cnc(N)c(C(F)(F)F)c3)nn2C(C)C)C1 [compound 192, 5-(1-isopropyl-5-((1R,3s,5S,6R)-3-((R)-3-methoxypyrrolidin-1-yl)bicyclo[3.1.0]hexan-6-yl)-1H-pyrazol-3-yl)-3-(trifluoromethyl) pyridin-2-amine] | 2.6 |
| CC(C)n1nc(-c2cnc(N)c(OC(F)(F)F)c2)cc1[C@H]1[C@@H]2C[C@@H](N3CC4(CCCO4)C3)C[C@@H]21 [compound 221, 5-(5-((1R,3s,5S,6r)-3-(5-oxa-2-azaspiro[3.4]octan-2-yl)bicyclo [3.1.0]hexan-6-yl)-1-isopropyl-1H-pyrazol-3-yl)-3-(trifluoromethoxy) pyridin-2-amine] | 2 |
| CC(C)n1nc(-c2cnc(N)c(C(F)(F)F)c2)cc1[C@H]1[C@@H]2C[C@@H](n3ccnc3)C[C@@H]21 [compound 114, 5-(5-((1R,3s,5S,6r)-3-(1H-imidazol-1-yl)bicyclo[3.1.0]hexan-6-yl)-1-isopropyl-1H-pyrazol-3-yl)-3-(trifluoromethyl)pyridin-2-amine] | 15.1 |
| CC(C)n1nc(-c2cnc(N)c(C(F)(F)F)c2)cc1[C@H]1[C@@H]2C[C@H](N3CCC3)C[C@@H]21 [compound 30, 5-(5-((1R,3r,5S,6r)-3-(azetidin-1-yl)bicyclo[3.1.0]hexan-6-yl)-1-isopropyl-1H-pyrazol-3-yl)-3-(trifluoromethyl)pyridin-2-amine] | 3.59 |
| COCCO[C@H]1C[C@@H]2[C@H](C1)[C@H]2c1cc(-c2cnc(N)c(C(F)(F)F)c2)nn1C(C)C [compound 272, 5-(1-isopropyl-5-((1R,3r,5S,6r)-3-(2-methoxyethoxy)bicyclo [3.1.0]hexan-6-yl)-1H-pyrazol-3-yl)-3-(trifluoromethyl)pyridin-2-amine] | 5.6 |
